Data taken from paper PMC11143257, “Atomistic mechanism of coupling between cytosolic sensor domain and selectivity filter in TREK K2P channels” (Nature Communications, 2024).
Positions count from the first letter of the chain named.

Assays:
Experiment in all cases: MTS probe modification, inside-out patch-clamp
Type in all cases: cell-based
Details in all cases: 100 µM decyl-MTS
TREK-1 V322C = target: T1, TREK-1 V322C (Homo sapiens, UniProt O95069, V322C)
T1 construct: expressed in transfected cells; host or cells: Xenopus laevis oocytes (cRNA injection), excised inside-out patches
T1 sequence (O95069 1-426 V322C): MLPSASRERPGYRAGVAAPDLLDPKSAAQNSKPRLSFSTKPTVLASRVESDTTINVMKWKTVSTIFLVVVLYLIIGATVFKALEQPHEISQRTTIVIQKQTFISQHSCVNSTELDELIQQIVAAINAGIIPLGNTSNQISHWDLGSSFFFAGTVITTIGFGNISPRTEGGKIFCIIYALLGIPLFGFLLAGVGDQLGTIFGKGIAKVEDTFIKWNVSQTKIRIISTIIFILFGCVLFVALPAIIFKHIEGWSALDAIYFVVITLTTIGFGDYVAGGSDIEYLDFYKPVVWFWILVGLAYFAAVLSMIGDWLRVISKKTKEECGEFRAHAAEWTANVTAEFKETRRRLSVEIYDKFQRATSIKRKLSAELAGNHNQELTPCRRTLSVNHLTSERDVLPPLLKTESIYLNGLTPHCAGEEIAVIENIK
Description: (§1) First, we measured WT TREK-1, WT TRAAK and TREK-2^* channels without modifiable cysteine residues as references. […] Note, that patch integrity and channel regulation were tested with either 1 mM tetra-pentyl-ammonium (TPenA) and a short pHi activation step. Next, we conducted systematic cysteine scanning mutagenesis of the entire pCt and examined the effect of charged and aliphatic MTS probes.
(§2) Xenopus laevis oocytes were surgically removed from anesthetized adult females, treated with type II collagenase (Sigma-Aldrich/Merck, Germany) and manually defolliculated. A solution containing the K^+ channel-specific cRNA at a desired concentration was injected into Dumont stage V - VI oocytes and subsequently incubated at 17 °C in a solution containing (mM): 54 NaCl, […], 2.4 NaHCO3, 0.82 MgSO4 x 7 H2O, 0.41 CaCl2, 0.33 Ca(NO3)2 x 4 H2O and 7.5 TRIS (pH 7.4 adjusted with NaOH/HCl) for 1 - 7 days before use. Patch-clamp recordings in an inside-out configuration under voltage-clamp conditions were performed at room temperature (22 - 24 °C). Patch pipettes were made from thick-walled borosilicate glass GB 200TF-8P (Science Products, Germany), had resistances of 0.2 - 0.5 MΩ (tip diameter of 10 - 25 µm) and filled with a pipette solution (in mM): 120 KCl, 10 HEPES and 3.6 CaCl2 (pH 7.4 adjusted with KOH/HCl). Intracellular bath solutions and compounds were applied to the cytoplasmic side of excised patches for the various K^+ channels via a gravity flow multi-barrel pipette system. The intracellular solution had the following composition (in mM): 120 KCl, 10 HEPES, 2 EGTA, and 1 Pyrophosphate (pH adjusted with KOH/HCl). Currents were recorded with an EPC10 amplifier (HEKA electronics, Germany) and sampled at 10 kHz or higher and filtered with 3 kHz (-3 dB) or higher as appropriate for the sampling rate.
(§3) Tetra-pentyl-ammonium chloride (TPenA) was purchased from Merck (Sigma-Aldrich), prepared as 100 mM stocks in intracellular recording solution, stored at −20 °C and diluted to a final concentration in intracellular recording solution before measurements. Decyl-MethaneThioSulfonate (Decyl-MTS), (2-(trimethylammonium)ethyl)MethaneThioSulfonate bromide (MTS-ET^+) and Sodium (2-sulfonatoethyl)MethaneThioSulfonate (MTS-ES^-) were purchased from Toronto Research Chemicals. MTS-ET^+ was directly dissolved to the desired concentration of 1 mM in the intracellular recording solution before each experiment. MTS-ET^+ was used immediately after dilution for maximally 5 min. Decyl-MTS and […] were prepared as 10 - 100 mM stocks in DMSO and diluted to the desired concentration before the measurements.
(§4) The fold current increase (fold activation) of a ligand (decyl-MTS) was calculated from the following equation:1 FoldactivationFA=Iactivated/Ibasal with Iactivated represents the stable current level in the presence of 100 µM decyl-MTS and Ibasal the measured current before application of the MTS probe.

TREK-1 F325C = target: T2, TREK-1 F325C (Homo sapiens, UniProt O95069, F325C)
T2 construct: expressed in transfected cells; host or cells: Xenopus laevis oocytes (cRNA injection), excised inside-out patches
T2 sequence (O95069 1-426 F325C): T1 sequence (O95069 1-426 V322C) with C322V, F325C
Description: as §1, §2, §3, §4

TREK-1 T318C = target: T3, TREK-1 T318C (Homo sapiens, UniProt O95069, T318C)
T3 construct: expressed in transfected cells; host or cells: Xenopus laevis oocytes (cRNA injection), excised inside-out patches
T3 sequence (O95069 1-426 T318C): T1 sequence (O95069 1-426 V322C) with T318C, C322V
Description: as §1, §2, §3, §4

CCCCCCCCCCSS(C)(=O)=O [decyl-MTS, Decyl-MethaneThioSulfonate]
full current increase (fold activation) (TREK-1 V322C; mean ± s.e.m.): 42 ± 17 fold | effect on current (TREK-1 V322C; symmetrical K+, +40 mV, pH 7.4): strong and irreversible activation | full current increase (fold activation) (TREK-1 F325C; mean ± s.e.m.): 103 ± 20 fold | effect on current (TREK-1 F325C; symmetric K+, +40 mV, pH 7.4): robust activation | full current increase (fold activation) (TREK-1 T318C; mean ± s.e.m.): 33 ± 11 fold | effect on current (TREK-1 T318C; symmetrical K+, +40 mV, pH 7.4): strong and irreversible activation
